According to patent US10556888B2, “Pyrazole compounds or salts thereof, preparation methods therefor, herbicidal compositions and use thereof” (QINGDAO KINGAGROOT CHEMICAL COMPOUNDS CO., LTD, priority 2015, dated 2020):

Legend:
[1] = system: main crop (wheat, corn, rice, soybean, cotton, oilseed, millet and sorghum); experiment: Post-emergence test experiment, main crops (Table 2); format: in vivo; parameters: key: Level 10: completely dead; Level 9: above 90% growth inhibition rate; Level 8: above 80% growth inhibition rate; Level 7: above 70% growth inhibition rate; Level 6: above 60% growth inhibition rate; Level 5: above 50% growth inhibition rate; Level 4: above 30% growth inhibition rate; Level 3: above 20% growth inhibition rate; Level 2: above 10% growth inhibition rate; Level 1: above 1-10% growth inhibition rate; Level 0: no effect; conditions: 3 weeks after spraying, greenhouse
Procedure, shortened: (§1)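 Compounds, dissolved in acetone, mixed with Tween 80 and diluted in water, were sprayed post-emergence onto greenhouse-grown weeds and crops at the 2-3 leaf stage (2-3 weeks post-sowing). Plants then grown 3 more weeks in the greenhouse before evaluation.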

[2] = system: Monocotyledonous and dicotyledonous weed; experiment: Post-emergence test experiment, weed control effect (Table 2); format: in vivo; parameters: key to weed control effect, Setaria viridis (level) / weed control effect, Rorippa indica (level) / weed control effect, Abutilon theophrasti (level) / weed control effect, Echinochloa crus-galli (level) / weed control effect, Digitaria sanguinalis (level): Level 10: completely dead; Level 9: above 90% growth inhibition rate; Level 8: above 80% growth inhibition rate; Level 7: above 70% growth inhibition rate; Level 6: above 60% growth inhibition rate; Level 5: above 50% growth inhibition rate; Level 4: above 30% growth inhibition rate; Level 3: above 20% growth inhibition rate; Level 2: above 10% growth inhibition rate; Level 1: above 1-10% growth inhibition rate; Level 0: no effect; conditions: 3 weeks after spraying, greenhouse
Procedure, shortened: as §1

| SMILES | effect on crop, corn (level) ([1]; 30 g/ha) | effect on crop, rice (level) ([1]; 30 g/ha) | effect on crop, wheat (level) ([1]; 30 g/ha) | weed control effect, Abutilon theophrasti (level) ([2]; 30 g/ha) | weed control effect, Bidens pilosa (level) ([2]; 30 g/ha) | weed control effect, Digitaria sanguinalis (level) ([2]; 30 g/ha) | weed control effect, Echinochloa crus-galli (level) ([2]; 30 g/ha) | weed control effect, Rorippa indica (level) ([2]; 30 g/ha) | weed control effect, Setaria viridis (level) ([2]; 30 g/ha) | further results |
| --- | --- | --- | --- | --- | --- | --- | --- | --- | --- | --- |
| Cc1nn(C)cc1C(=O)Oc1c(C(=O)c2ccc(S(C)(=O)=O)c(COCC(F)F)c2Cl)c(C)nn1C [Compound 25] | 0 | 6 (Level 6: above 60% growth inhibition rate) | 0 | 7 (Level 7: above 70% growth inhibition rate) | 7 (Level 7: above 70% growth inhibition rate) | 10 | 10 | 5 (Level 5: above 50% growth inhibition rate) | 9 (Level 9: above 90% growth inhibition rate) |  |
| CCOCc1c(S(C)(=O)=O)ccc(C(=O)c2c(C)nn(C)c2OC(=O)c2cnn(C)c2)c1Cl [Compound 73] | 0 | 3 (Level 3: above 20% growth inhibition rate) | 0 | 7 (Level 7: above 70% growth inhibition rate) | 7 (Level 7: above 70% growth inhibition rate) | 9 (Level 9: above 90% growth inhibition rate) | 10 | 10 | 9 (Level 9: above 90% growth inhibition rate) |  |
| Cc1nn(C)cc1C(=O)Oc1c(C(=O)c2ccc(S(C)(=O)=O)c(COCC(F)(F)C(F)F)c2Cl)c(C2CC2)nn1C [Compound 48] | 0 | 3 (Level 3: above 20% growth inhibition rate) | 0 | 7 (Level 7: above 70% growth inhibition rate) | 7 (Level 7: above 70% growth inhibition rate) | 7 (Level 7: above 70% growth inhibition rate) | 10 | 10 | 9 (Level 9: above 90% growth inhibition rate) |  |
| CCOCc1c(S(C)(=O)=O)ccc(C(=O)c2c(C3CC3)nn(C(C)C)c2OC(=O)c2cn(C)nc2C)c1Cl [Compound 96] |  |  |  |  |  |  |  |  |  | effect on crop, corn (level) ([1]; 60 g/ha): 0; effect on crop, rice (level) ([1]; 60 g/ha): 4 (Level 4: above 30% growth inhibition rate); effect on crop, wheat (level) ([1]; 60 g/ha): 0; weed control effect, Abutilon theophrasti (level) ([2]; 60 g/ha): 10; weed control effect, Bidens pilosa (level) ([2]; 60 g/ha): 8 (Level 8: above 80% growth inhibition rate); weed control effect, Digitaria sanguinalis (level) ([2]; 60 g/ha): 8 (Level 8: above 80% growth inhibition rate); weed control effect, Echinochloa crus-galli (level) ([2]; 60 g/ha): 10; weed control effect, Rorippa indica (level) ([2]; 60 g/ha): 10; weed control effect, Setaria viridis (level) ([2]; 60 g/ha): 10 |
| CCOCCOCc1c(S(C)(=O)=O)ccc(C(=O)c2c(C3CC3)nn(C)c2OC(=O)c2cnn(C)c2)c1Cl [Compound 74] | 0 | 3 (Level 3: above 20% growth inhibition rate) | 0 | 7 (Level 7: above 70% growth inhibition rate) | 5 (Level 5: above 50% growth inhibition rate) | 6 (Level 6: above 60% growth inhibition rate) | 10 | 10 | 6 (Level 6: above 60% growth inhibition rate) |  |
| CCn1nc(C2CC2)c(C(=O)c2ccc(S(C)(=O)=O)c(Cn3cc(C)cn3)c2Cl)c1OC(=O)c1cnn(C)c1 [Compound 91] |  |  |  |  |  |  |  |  |  | effect on crop, corn (level) ([1]; 120 g/ha): 0; effect on crop, rice (level) ([1]; 120 g/ha): 0; effect on crop, wheat (level) ([1]; 120 g/ha): 0; weed control effect, Abutilon theophrasti (level) ([2]; 120 g/ha): 6 (Level 6: above 60% growth inhibition rate); weed control effect, Bidens pilosa (level) ([2]; 120 g/ha): 6 (Level 6: above 60% growth inhibition rate); weed control effect, Digitaria sanguinalis (level) ([2]; 120 g/ha): 1 (Level 1: above 1-10% growth inhibition rate); weed control effect, Echinochloa crus-galli (level) ([2]; 120 g/ha): 10; weed control effect, Rorippa indica (level) ([2]; 120 g/ha): 4 (Level 4: above 30% growth inhibition rate); weed control effect, Setaria viridis (level) ([2]; 120 g/ha): 3 (Level 3: above 20% growth inhibition rate) |
| Cc1ccn(Cc2c(S(C)(=O)=O)ccc(C(=O)c3c(C)nn(C)c3OC(=O)c3cnn(C)c3)c2Cl)n1 [Compound 15] |  |  |  |  |  |  |  |  |  | effect on crop, corn (level) ([1]; 120 g/ha): 0; effect on crop, rice (level) ([1]; 120 g/ha): 1 (Level 1: above 1-10% growth inhibition rate); effect on crop, wheat (level) ([1]; 120 g/ha): 0; weed control effect, Abutilon theophrasti (level) ([2]; 120 g/ha): 9 (Level 9: above 90% growth inhibition rate); weed control effect, Bidens pilosa (level) ([2]; 120 g/ha): 8 (Level 8: above 80% growth inhibition rate); weed control effect, Digitaria sanguinalis (level) ([2]; 120 g/ha): 4 (Level 4: above 30% growth inhibition rate); weed control effect, Echinochloa crus-galli (level) ([2]; 120 g/ha): 10; weed control effect, Rorippa indica (level) ([2]; 120 g/ha): 10; weed control effect, Setaria viridis (level) ([2]; 120 g/ha): 5 (Level 5: above 50% growth inhibition rate) |
| C#CCOCc1c(S(C)(=O)=O)ccc(C(=O)c2c(C)nn(C)c2OC(=O)c2cnn(C)c2)c1Cl [Compound 69] | 0 | 3 (Level 3: above 20% growth inhibition rate) | 0 | 7 (Level 7: above 70% growth inhibition rate) | 7 (Level 7: above 70% growth inhibition rate) | 6 (Level 6: above 60% growth inhibition rate) | 10 | 10 | 6 (Level 6: above 60% growth inhibition rate) |  |
| CCOCc1c(S(C)(=O)=O)ccc(C(=O)c2c(C)nn(C)c2OC(=O)c2cn(C)nc2C)c1Cl [Compound 27] | 0 | 6 (Level 6: above 60% growth inhibition rate) | 0 | 7 (Level 7: above 70% growth inhibition rate) | 7 (Level 7: above 70% growth inhibition rate) | 7 (Level 7: above 70% growth inhibition rate) | 9 (Level 9: above 90% growth inhibition rate) | 5 (Level 5: above 50% growth inhibition rate) | 6 (Level 6: above 60% growth inhibition rate) |  |
| C#CCOCc1c(S(C)(=O)=O)ccc(C(=O)c2cnn(C)c2OC(=O)c2cnn(C)c2OCC)c1Cl [Compound 58] | 0 | 3 (Level 3: above 20% growth inhibition rate) | 0 | 7 (Level 7: above 70% growth inhibition rate) | 7 (Level 7: above 70% growth inhibition rate) | 7 (Level 7: above 70% growth inhibition rate) | 10 | 10 | 9 (Level 9: above 90% growth inhibition rate) |  |
| Cc1nn(C)cc1C(=O)Oc1c(C(=O)c2ccc(S(C)(=O)=O)c(COCC(F)(F)F)c2Cl)cnn1C [Compound 44] | 0 | 3 (Level 3: above 20% growth inhibition rate) | 0 | 7 (Level 7: above 70% growth inhibition rate) | 7 (Level 7: above 70% growth inhibition rate) | 10 | 10 | 10 | 9 (Level 9: above 90% growth inhibition rate) |  |
| Cc1nn(C)cc1C(=O)Oc1c(C(=O)c2ccc(S(C)(=O)=O)c(Cn3cccn3)c2Cl)c(C)nn1C [Compound 01] |  |  |  |  |  |  |  |  |  | effect on crop, corn (level) ([1]; 60 g/ha): 1 (Level 1: above 1-10% growth inhibition rate); effect on crop, rice (level) ([1]; 60 g/ha): 1 (Level 1: above 1-10% growth inhibition rate); effect on crop, wheat (level) ([1]; 60 g/ha): 1 (Level 1: above 1-10% growth inhibition rate); weed control effect, Abutilon theophrasti (level) ([2]; 60 g/ha): 10; weed control effect, Bidens pilosa (level) ([2]; 60 g/ha): 8 (Level 8: above 80% growth inhibition rate); weed control effect, Digitaria sanguinalis (level) ([2]; 60 g/ha): 10; weed control effect, Echinochloa crus-galli (level) ([2]; 60 g/ha): 10; weed control effect, Rorippa indica (level) ([2]; 60 g/ha): 10; weed control effect, Setaria viridis (level) ([2]; 60 g/ha): 10 |
| Cn1cc(C(=O)Oc2c(C(=O)c3ccc(S(C)(=O)=O)c(COCC(F)(F)F)c3Cl)cnn2C)cn1 [Compound 67] | 1 (Level 1: above 1-10% growth inhibition rate) | 3 (Level 3: above 20% growth inhibition rate) | 0 | 7 (Level 7: above 70% growth inhibition rate) | 7 (Level 7: above 70% growth inhibition rate) | 7 (Level 7: above 70% growth inhibition rate) | 10 | 10 | 9 (Level 9: above 90% growth inhibition rate) |  |
